These results are taken from ChEMBL document CHEMBL4152201, “Novel sarsasapogenin-triazolyl hybrids as potential anti-Alzheimer's agents: Design, synthesis and biological evaluation” (Eur J Med Chem, 2018).

What is called inhibition is the percentage by which the read-out fell short of the control. One may read the IC50 as the concentration needed to halve the response being measured. Lower therefore signals greater potency.

Active and inactive are the calls of the source. The calls are words filed in the database; no cut-off is given here.

In data set [1] the target is T1, Amyloid-beta precursor protein (Homo sapiens, UniProt P05067). The experiment in a line: Inhibition of amyloid beta (1 to 42) (unknown origin) self-aggregation at 20 uM after 24 hrs by thioflavin-T fluorescence assay relative to control.
T1 sequence (P05067 whole entry): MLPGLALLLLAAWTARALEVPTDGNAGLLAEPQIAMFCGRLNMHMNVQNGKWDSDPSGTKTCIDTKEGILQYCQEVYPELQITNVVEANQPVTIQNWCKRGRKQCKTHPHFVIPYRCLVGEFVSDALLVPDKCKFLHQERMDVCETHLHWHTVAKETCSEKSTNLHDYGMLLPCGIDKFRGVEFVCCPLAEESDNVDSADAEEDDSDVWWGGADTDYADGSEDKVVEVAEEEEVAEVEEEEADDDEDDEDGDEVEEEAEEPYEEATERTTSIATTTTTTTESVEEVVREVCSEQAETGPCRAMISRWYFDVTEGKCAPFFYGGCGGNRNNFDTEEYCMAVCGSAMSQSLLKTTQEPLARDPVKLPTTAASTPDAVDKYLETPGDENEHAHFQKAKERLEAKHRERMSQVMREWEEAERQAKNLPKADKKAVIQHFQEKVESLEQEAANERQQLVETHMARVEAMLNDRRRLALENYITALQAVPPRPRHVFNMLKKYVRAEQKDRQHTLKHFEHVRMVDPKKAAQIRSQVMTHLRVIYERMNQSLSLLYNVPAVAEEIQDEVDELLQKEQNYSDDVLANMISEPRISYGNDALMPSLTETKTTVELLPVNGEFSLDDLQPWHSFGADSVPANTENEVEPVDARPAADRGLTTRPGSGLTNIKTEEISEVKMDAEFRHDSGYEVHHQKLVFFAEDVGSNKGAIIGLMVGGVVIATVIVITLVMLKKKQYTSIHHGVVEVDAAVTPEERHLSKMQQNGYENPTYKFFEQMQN
For data set [2], the target named is T1, Amyloid-beta precursor protein. In words: Inhibition of amyloid beta (1 to 42) (unknown origin) self-aggregation after 24 hrs by thioflavin-T fluorescence assay.
The subject of data set [3] is SH-SY5Y. In words: Cytotoxicity against human SH-SY5Y cells at 50 uM after 24 hrs by MTT assay. Format: cell-based. (In general: Formazan colour is commonly taken as a measure of viable cells.)
Data set [4] deals with SH-SY5Y. In words: Neuroprotective activity against H2O2-induced oxidative stress in human SH-SY5Y cells assessed as cell viability at 12.5 uM pre-incubated for 1 hr followed by H2O2 addition and measured after 4 hrs by MTT assay relative to control. Format: functional. The note with it: read-out: Activity.
Data set [5] has as its system SH-SY5Y. The experiment in a line: Neuroprotective activity against H2O2-induced oxidative stress in human SH-SY5Y cells assessed as cell viability at 25 uM pre-incubated for 1 hr followed by H2O2 addition and measured after 4 hrs by MTT assay relative to control. In kind it is functional. The settings on record: read-out: Activity.
The subject of data set [6] is SH-SY5Y. In words: Neuroprotective activity against H2O2-induced oxidative stress in human SH-SY5Y cells assessed as cell viability at 50 uM pre-incubated for 1 hr followed by H2O2 addition and measured after 4 hrs by MTT assay relative to control. In kind it is functional. The settings on record: read-out: Activity.
Data set [7] deals with Mus musculus. In words: Cognitive enhancing effect in Kunming mouse model of amyloid beta (1 to 42) oligomer-induced memory impairment assessed as […] in spontaneous alternation behaviors at 17.5 to 35 mg/kg/day, po starting from day 1 of amyloid beta (1 to 42) oligomer treatment and measured on day 7 by Y-maze test. Format: functional, organism-based.
For data set [8], the system named is Mus musculus. The experiment in a line: Toxicity in Kunming mouse model of amyloid beta (1 to 42) oligomer-induced memory impairment assessed as effect on number of arm entries at 17.5 to 35 mg/kg/day, po starting from day 1 of amyloid beta (1 to 42) oligomer treatment and measured on day 7 by Y-maze test. In kind it is organism-based. The note with it: in vivo.

The test system of data set [9] is Mus musculus. In words: Memory enhancing effect in Kunming mouse model of amyloid beta (1 to 42) oligomer-induced memory impairment assessed as increase in preferential index in retention session of 1 hr at 17.5 mg/kg/day, po starting from day 1 of amyloid beta (1 to 42) oligomer treatment and measured on day 7 by novel object recognition test. Format: functional, organism-based.

Data set [10] concerns Mus musculus. In words: Cognitive enhancing effect in Kunming mouse model of amyloid beta (1 to 42) oligomer-induced memory impairment increase in time spent in target quadrant by measuring increase in number of platform crossings at 17.5 to 35 mg/kg/day, po starting from day 1 of amyloid beta (1 to 42) oligomer treatment and measured on day 12 by Morris water maze test. Format: functional, organism-based.

For data set [11], the system named is Mus musculus. In words: Cognitive enhancing effect in Kunming mouse model of amyloid beta (1 to 42) oligomer-induced memory impairment assessed as longer escape latency at 35 mg/kg, po starting from day 1 of amyloid beta (1 to 42) oligomer treatment and measured on day 7 by passive avoidance test. In kind it is functional, organism-based.
The test system of data set [12] is Mus musculus. In words: Cognitive enhancing effect in Kunming mouse model of amyloid beta (1 to 42) oligomer-induced memory impairment assessed as induction of fewer entries into dark compartment at 35 mg/kg, po starting from day 1 of amyloid beta (1 to 42) oligomer treatment and measured on day 7 by passive avoidance test. Format: functional, organism-based.

In data set [13] the test system is Mus musculus. In words: Neuroprotective activity in Kunming mouse model of amyloid beta (1 to 42) oligomer-induced memory impairment assessed as reduction in neural degeneration in CA1 region at 17.5 to 35 mg/kg, po starting from day 1 of amyloid beta (1 to 42) oligomer treatment and measured on day 7 by Nissl's staining-based assay. In kind it is functional, organism-based.

In data set [14] the test system is Mus musculus. In words: Neuroprotective activity in Kunming mouse model of amyloid beta (1 to 42) oligomer-induced memory impairment assessed as reduction in neuronal degeneration by measuring clear and intact neurons in CA1 and CA3 region at 17.5 to 35 mg/kg, po starting from day 1 of amyloid beta (1 to 42) oligomer treatment and measured on day 7 by TUNEL assay. Format: functional, organism-based.

In data set [15] the test system is Mus musculus. The experiment in a line: Neuroprotective activity in Kunming mouse model of amyloid beta (1 to 42) oligomer-induced memory impairment assessed as reduction in neuronal degeneration by measuring reduction in degenerative changes in nucleus of CA1 and CA3 region at 17.5 to 35 mg/kg, po starting from day 1 of amyloid beta (1 to 42) oligomer treatment and measured on day 7 by TUNEL assay. In kind it is functional, organism-based.

The test system of data set [16] is Mus musculus. In words: Neuroprotective activity amyloid beta (1 to 42) oligomer-induced memory impaired Kunming mouse assessed as reduction in apoptotic cells in CA1 and CA3 hipocampal neurons at 35 mg/kg, po starting from day 1 of amyloid beta (1 to 42) oligomer treatment and measured on day 7 by TUNEL assay. Format: functional, organism-based.
Data set [17] has as its target T1, Amyloid-beta precursor protein. The experiment in a line: Potency index, ratio of IC50 for curcumin to IC50 for test compound for inhibition of amyloid beta (1 to 42) (unknown origin) self-aggregation after 24 hrs by thioflavin-T fluorescence assay.
Data set [18] deals with Mus musculus. The experiment in a line: Neuroprotective activity amyloid beta (1 to 42) oligomer-induced memory impaired Kunming mouse assessed as reduction in apoptotic cells in CA1 and CA3 hipocampal neurons at 1.3 mg/kg, po starting from day 1 of amyloid beta (1 to 42) oligomer treatment and measured on day 7 by TUNEL assay. In kind it is functional, organism-based.
Data set [19] relates to Mus musculus. The experiment in a line: Cognitive enhancing effect in Kunming mouse model of amyloid beta (1 to 42) oligomer-induced memory impairment assessed as […] in spontaneous alternation behaviors at 1.3 mg/kg/day, po starting from day 1 of amyloid beta (1 to 42) oligomer treatment and measured on day 7 by Y-maze test. In kind it is functional, organism-based.

Data set [20] concerns Mus musculus. The experiment in a line: Toxicity in Kunming mouse model of amyloid beta (1 to 42) oligomer-induced memory impairment assessed as effect on number of arm entries at 1.3 mg/kg/day, po starting from day 1 of amyloid beta (1 to 42) oligomer treatment and measured on day 7 by Y-maze test. Format: organism-based. The settings on record: in vivo.
In data set [21] the test system is Mus musculus. The experiment in a line: Memory enhancing effect in Kunming mouse model of amyloid beta (1 to 42) oligomer-induced memory impairment assessed as increase in preferential index in retention session of 1 hr at 1.3 mg/kg/day, po starting from day 1 of amyloid beta (1 to 42) oligomer treatment and measured on day 7 by novel object recognition test. Format: functional, organism-based.

The test system of data set [22] is Mus musculus. The experiment in a line: Cognitive enhancing effect in Kunming mouse model of amyloid beta (1 to 42) oligomer-induced memory impairment increase in time spent in target quadrant by measuring increase in number of platform crossings at 1.3 mg/kg/day, po starting from day 1 of amyloid beta (1 to 42) oligomer treatment and measured on day 12 by Morris water maze test. In kind it is functional, organism-based.

Data set [23] deals with Mus musculus. The experiment in a line: Cognitive enhancing effect in Kunming mouse model of amyloid beta (1 to 42) oligomer-induced memory impairment assessed as longer escape latency at 1.3 mg/kg, po starting from day 1 of amyloid beta (1 to 42) oligomer treatment and measured on day 7 by passive avoidance test. Format: functional, organism-based.
In data set [24] the test system is Mus musculus. The experiment in a line: Cognitive enhancing effect in Kunming mouse model of amyloid beta (1 to 42) oligomer-induced memory impairment assessed as induction of fewer entries into dark compartment at 1.3 mg/kg, po starting from day 1 of amyloid beta (1 to 42) oligomer treatment and measured on day 7 by passive avoidance test. Format: functional, organism-based.

Data set [25] deals with Mus musculus. The experiment in a line: Neuroprotective activity in Kunming mouse model of amyloid beta (1 to 42) oligomer-induced memory impairment assessed as reduction in neural degeneration in CA1 region at 1.3 mg/kg, po starting from day 1 of amyloid beta (1 to 42) oligomer treatment and measured on day 7 by Nissl's staining-based assay. In kind it is functional, organism-based.

Data set [26] deals with Mus musculus. In words: Neuroprotective activity in Kunming mouse model of amyloid beta (1 to 42) oligomer-induced memory impairment assessed as reduction in neuronal degeneration by measuring clear and intact neurons in CA1 and CA3 region at 1.3 mg/kg, po starting from day 1 of amyloid beta (1 to 42) oligomer treatment and measured on day 7 by TUNEL assay. In kind it is functional, organism-based.

Data set [27] has as its system Mus musculus. In words: Neuroprotective activity in Kunming mouse model of amyloid beta (1 to 42) oligomer-induced memory impairment assessed as reduction in neuronal degeneration by measuring reduction in degenerative changes in nucleus of CA1 and CA3 region at 1.3 mg/kg, po starting from day 1 of amyloid beta (1 to 42) oligomer treatment and measured on day 7 by TUNEL assay. In kind it is functional, organism-based.

The test system of data set [28] is Mus musculus. In words: Memory enhancing effect in Kunming mouse model of amyloid beta (1 to 42) oligomer-induced memory impairment assessed as increase in preferential index in retention session of 1 hr at 17.5 to 35 mg/kg/day, po starting from day 1 of amyloid beta (1 to 42) oligomer treatment and measured on day 7 by novel object recognition test. Format: functional, organism-based.

Data set [29] deals with Mus musculus. The experiment in a line: Cognitive enhancing effect in Kunming mouse model of amyloid beta (1 to 42) oligomer-induced memory impairment assessed as longer escape latency at 17.5 to 35 mg/kg, po starting from day 1 of amyloid beta (1 to 42) oligomer treatment and measured on day 7 by passive avoidance test. Format: functional, organism-based.
Data set [30] relates to Mus musculus. The experiment in a line: Cognitive enhancing effect in Kunming mouse model of amyloid beta (1 to 42) oligomer-induced memory impairment assessed as induction of fewer entries into dark compartment at 17.5 to 35 mg/kg, po starting from day 1 of amyloid beta (1 to 42) oligomer treatment and measured on day 7 by passive avoidance test. In kind it is functional, organism-based.

Molecule `COc1ccc(Cn2cc(CNC(=O)[C@@H](C)CC[C@H]3O[C@H]4C[C@H]5[C@@H]6CC[C@@H]7C[C@@H](OCc8ccccc8)CC[C@]7(C)[C@H]6CC[C@]5(C)[C@H]4[C@@H]3C)nn2)cc1` gave an inhibition in data set [1] of 84.7%. The IC50 in [2] was determined as 5.84 µM. The Activity entry in the data set with SH-SY5Y [3] and in the data set with Mus musculus [8] was “Non-Toxic” throughout. Further, the viability at 12.5 µM in the data set with SH-SY5Y [4] worked out at 71.8%. Also, the viability at 25 µM with SH-SY5Y [5] is 80.9%. Further, in the data set with SH-SY5Y [6], the viability at 50 µM is 63.1%. Besides, the outcome in the data set with Mus musculus [7], in the data set with Mus musculus [9], in the data set with Mus musculus [10], with Mus musculus [11], in the data set on Mus musculus [12] and in the data set with Mus musculus [13] was Active. Also, the result with Mus musculus [14], in the data set with Mus musculus [15] and with Mus musculus [16] was Active. The Ratio IC50 in data set [17] was 2.6.
For the molecule `COc1cc2c(cc1OC)C(=O)C(CC1CCN(Cc3ccccc3)CC1)C2.Cl` (centres undefined) [DONEPEZIL HYDROCHLORIDE], the result in the data set on Mus musculus [18], with Mus musculus [19], in the data set with Mus musculus [21], in the data set on Mus musculus [22], in the data set with Mus musculus [23] and in the data set on Mus musculus [24] was Active. In addition, the outcome in the data set on Mus musculus [25], with Mus musculus [26] and with Mus musculus [27] was Active. Besides, in the data set with Mus musculus [20], the Activity entry is “Non-Toxic”.
`C[C@H]1[C@H]2[C@H](C[C@H]3[C@@H]4CC[C@@H]5C[C@@H](OCc6ccccc6)CC[C@]5(C)[C@H]4CC[C@]23C)O[C@@H]1CC[C@H](C)C(=O)NCc1cn(Cc2cscn2)nn1` came in with an inhibition in [1] of 75.1%. This molecule showed an IC50 in [2] of 8.28 µM. In addition, the Activity result in the data set on SH-SY5Y [3] and in the data set with Mus musculus [8] was “Non-Toxic” each time. In addition, in the data set with SH-SY5Y [4], the viability at 12.5 µM was 71.6%. Besides, the viability at 25 µM with SH-SY5Y [5] was 73.3%. Moreover, in the data set on SH-SY5Y [6], the viability at 50 µM turned out to be 84.9%. The outcome in the data set with Mus musculus [7], with Mus musculus [28], in the data set with Mus musculus [10], in the data set with Mus musculus [29], with Mus musculus [30] and with Mus musculus [13] was Active. Besides, the result in the data set on Mus musculus [14], in the data set with Mus musculus [15] and in the data set on Mus musculus [16] was Active. Moreover, the Ratio IC50 in data set [17] turned out to be 1.8.
